The results in this text go back to ChEMBL document CHEMBL4052774, “Design, synthesis, molecular modeling and anti-hyperglycemic evaluation of quinazolin-4(3H)-one derivatives as potential PPARγ and SUR agonists” (Bioorg Med Chem, 2017).

Molecules are shown by their SMILES.

The target of test [1] is T1, Peroxisome proliferator-activated receptor gamma (Homo sapiens, UniProt P37231).
T1 sequence (P37231 whole entry): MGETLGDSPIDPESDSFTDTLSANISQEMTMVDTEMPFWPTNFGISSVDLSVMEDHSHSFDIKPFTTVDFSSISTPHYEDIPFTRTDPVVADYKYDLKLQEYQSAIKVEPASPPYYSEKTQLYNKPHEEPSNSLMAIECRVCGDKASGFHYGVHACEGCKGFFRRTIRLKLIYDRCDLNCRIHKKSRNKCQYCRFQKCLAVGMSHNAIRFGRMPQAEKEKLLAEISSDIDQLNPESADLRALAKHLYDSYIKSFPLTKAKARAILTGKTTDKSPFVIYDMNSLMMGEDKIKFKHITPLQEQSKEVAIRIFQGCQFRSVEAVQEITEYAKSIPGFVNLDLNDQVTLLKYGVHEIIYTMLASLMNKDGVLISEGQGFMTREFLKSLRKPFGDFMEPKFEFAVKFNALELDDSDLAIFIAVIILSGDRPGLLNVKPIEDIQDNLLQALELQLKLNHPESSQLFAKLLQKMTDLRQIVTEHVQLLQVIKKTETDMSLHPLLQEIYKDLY
The test can be described thus: Displacement of fluormone-PPARgamma green from GST-tagged PPARgamma-LBD (unknown origin) by fluorescence polarization assay.

A further test has as its system Rattus norvegicus. The test can be described thus: Antihyperglycemic activity in streptozotocin-induced diabetic Swiss albino rat assessed as decrease in blood glucose level at 20 mg/kg, po measured up to 3 hrs post dose relative to control. It counts as functional. On the set-up: scale not given: the % may be the effect or the level left.
A short description of test [2]: Agonist activity at SUR in Wistar rat pancreatic islets assessed as increase in insulin secretion at 5 to 20 uM incubated for 1 hr followed by glucose addition for 30 mins by quantitative sandwich enzyme immunoassay.

Turning to `Cc1nc2ccccc2n(CC(=O)Nc2ccc(S(=O)(=O)NC(=O)Nc3ccccc3)cc2)c1=O`, the IC50 in test [1] (read-out: IC50) amounted to 4 µM.

In the case of `Cc1nc2ccccc2n(CC(=O)Nc2ccc(S(=O)(=O)NC(=O)NC3CCCCC3)cc2)c1=O`, the half-maximal inhibitory concentration (IC50) in test [1] (read-out: IC50) amounted to 4 µM.

Regarding `Cc1nc2ccccc2n(CC(=O)Nc2ccc(S(=O)(=O)NC(=S)NC3CCCCC3)cc2)c1=O`, the 50% inhibitory concentration (IC50) in test [1] (read-out: IC50) was found to be 4 µM.

Regarding `CCCCNC(=S)NS(=O)(=O)c1ccc(NC(=O)Cn2c(=O)c(C)nc3ccccc32)cc1`, the half-inhibitory concentration (IC50) in test [1] (read-out: IC50) is 4 µM.

As for `CCCCNC(=O)NS(=O)(=O)c1ccc(NC(=O)Cn2c(=O)c(C)nc3ccccc32)cc1`, the IC50 in test [1] (read-out: IC50) is 4 µM.

In the case of `Cc1nc2ccccc2n(CC(=O)Nc2ccc(S(=O)(=O)NC(=S)Nc3ccccc3)cc2)c1=O`, in test [1] (read-out: IC50), the IC50 turned out to be 4 µM.

For `Cc1nc2ccccc2c(=O)n1CC(=O)Nc1ccc(S(=O)(=O)NC(=O)Nc2ccccc2)cc1`, the Activity in the test with Rattus norvegicus was 19.66%.

Turning to `CCc1nc2ccccc2c(=O)n1CC(=O)Nc1ccc(S(=O)(=O)NC(=O)Nc2ccccc2)cc1`, the Activity in the test with Rattus norvegicus is reported as 21.55%.

Consider `COc1ccc(-n2c(SCC(=O)Nc3ccc(S(=O)(=O)NC(=O)NC4CCCCC4)cc3)nc3ccccc3c2=O)cc1`, for which the Activity in the test on Rattus norvegicus was 46.42%. In addition, in test [1] (read-out: IC50), the concentration for half-maximal inhibition (IC50) was 0.35 µM. Also, in test [2], the 50% effective concentration (EC50) is 970 nM.

`CCCCNC(=O)NS(=O)(=O)c1ccc(NC(=O)CSc2nc3ccccc3c(=O)n2-c2ccc(OC)cc2)cc1`: in the test on Rattus norvegicus, the Activity worked out at 41.23%. Besides, in test [1] (read-out: IC50), the IC50 is 0.369 µM. Moreover, the half-maximal effective concentration (EC50) in test [2] is 1010 nM.

Take `Cc1ccc(-n2c(SCC(=O)Nc3ccc(S(=O)(=O)NC(=O)Nc4ccccc4)cc3)nc3ccccc3c2=O)cc1`: in the test on Rattus norvegicus, the Activity is 33.42%. Also, the half-inhibitory concentration (IC50) in test [1] (read-out: IC50) is 0.371 µM. Further, in test [2], the EC50 amounted to 3090 nM.

Take `CCCCNC(=O)NS(=O)(=O)c1ccc(NC(=O)Cn2c(CC)nc3ccccc3c2=O)cc1`: the Activity in the test with Rattus norvegicus was 38.44%. Also, in test [1] (read-out: IC50), the IC50 worked out at 0.408 µM. The EC50 in test [2] turned out to be 2510 nM.

As for `Cc1ccc(-n2c(SCC(=O)Nc3ccc(S(=O)(=O)NC(=O)NC4CCCCC4)cc3)nc3ccccc3c2=O)cc1`, the Activity in the test on Rattus norvegicus came to 40.43%. In addition, the half-inhibitory concentration (IC50) in test [1] (read-out: IC50) is 0.402 µM. In addition, the concentration for a half-maximal effect (EC50) in test [2] was 1310 nM.

Turning to `CCCCNC(=O)NS(=O)(=O)c1ccc(NC(=O)Cn2c(C)nc3ccc(Br)cc3c2=O)cc1`, the Activity in the test on Rattus norvegicus was 28.25%.

On to `CCc1nc2ccccc2c(=O)n1CC(=O)Nc1ccc(S(=O)(=O)NC(=O)NC2CCCCC2)cc1`, for which, in the test with Rattus norvegicus, the Activity was 34.25%. Besides, the IC50 in test [1] (read-out: IC50) amounted to 0.59 µM. Also, in test [2], the EC50 came out at 1150 nM.

As for `CCCCNC(=O)NS(=O)(=O)c1ccc(NC(=O)Cn2c(C)nc3ccccc3c2=O)cc1`, in the test with Rattus norvegicus, the Activity amounted to 29.22%. Moreover, in test [1] (read-out: IC50), the IC50 turned out to be 0.98 µM. Besides, in test [2], the 50% effective concentration (EC50) is 2910 nM.

As for `COc1ccc(-n2c(SCC(=O)Nc3ccc(S(=O)(=O)NC(=O)Nc4ccccc4)cc3)nc3ccccc3c2=O)cc1`, the Activity in the test with Rattus norvegicus is reported as 24.58%.

For `CCCCNC(=O)NS(=O)(=O)c1ccc(NC(=O)CSc2nc3ccccc3c(=O)n2-c2ccc(C)cc2)cc1`, in the test with Rattus norvegicus, the Activity was determined as 37.76%. Moreover, in test [1] (read-out: IC50), the concentration for half-maximal inhibition (IC50) worked out at 0.434 µM. Further, in test [2], the concentration giving a half-maximal response (EC50) was 1530 nM.

As to `Cc1nc2ccccc2c(=O)n1CC(=O)Nc1ccc(S(=O)(=O)NC(=O)NC2CCCCC2)cc1`, the Activity in the test with Rattus norvegicus was 38.64%. Besides, in test [1] (read-out: IC50), the half-maximal inhibitory concentration (IC50) amounted to 0.464 µM. Further, the concentration giving a half-maximal response (EC50) in test [2] was 2690 nM.

As for `Cc1nc2ccc(Br)cc2c(=O)n1CC(=O)Nc1ccc(S(=O)(=O)NC(=O)Nc2ccccc2)cc1`, in the test on Rattus norvegicus, the Activity is 21.33%.

As to `Cc1nc2ccc(Br)cc2c(=O)n1CC(=O)Nc1ccc(S(=O)(=O)NC(=O)NC2CCCCC2)cc1`, in the test with Rattus norvegicus, the Activity is reported as 42.5%. In addition, the IC50 in test [1] (read-out: IC50) came out at 0.353 µM. Besides, the half-maximal effective concentration (EC50) in test [2] was found to be 1680 nM.

As for `Cc1ccc(NC(=S)NS(=O)(=O)c2ccc(CCNS(=O)(=O)c3ccc(C)cc3)cc2)cc1`, the IC50 result in test [1] is listed as “Not Active”.

Turning to `Cc1ccc(NC(=S)NS(=O)(=O)c2ccc(CCNS(=O)(=O)c3ccccc3)cc2)cc1`, the half-inhibitory concentration (IC50) in test [1] (read-out: IC50) worked out at 50 µM.

As to `COc1ccc(NC(=S)NS(=O)(=O)c2ccc(CCNS(=O)(=O)c3ccccc3)cc2)cc1`, in test [1] (read-out: IC50), the IC50 amounted to 1000 µM.

Take `O=S(=O)(NCCc1ccc(S(=O)(=O)NC(=S)Nc2ccc(Cl)cc2)cc1)c1ccc(Cl)cc1`: the 50% inhibitory concentration (IC50) in test [1] (read-out: IC50) was found to be 33.3 µM.

Take `COc1ccc(NC(=S)NS(=O)(=O)c2ccc(CCNS(=O)(=O)c3ccc(Cl)cc3)cc2)cc1`: in test [1] (read-out: IC50), the IC50 is 33.3 µM.

For `O=C(NC1CCCCC1)NS(=O)(=O)c1ccc(CCNS(=O)(=O)c2ccccc2)cc1`, in test [1] (read-out: IC50), the concentration for half-maximal inhibition (IC50) stood at 12.5 µM.

With `CC1CCC(NC(=O)NS(=O)(=O)c2ccc(CCNS(=O)(=O)c3ccc(Br)cc3)cc2)CC1` (configuration not stated), the IC50 in test [1] (read-out: IC50) was determined as 1.6 µM.

For the compound `CC1CCC(NC(=O)NS(=O)(=O)c2ccc(CCNS(=O)(=O)c3ccccc3)cc2)CC1` (configuration not stated), the IC50 in test [1] (read-out: IC50) amounted to 3.4 µM.

For `O=C(NC1CCCCC1)NS(=O)(=O)c1ccc(CCNS(=O)(=O)c2ccc(Cl)cc2)cc1`, the concentration for half-maximal inhibition (IC50) in test [1] (read-out: IC50) was determined as 3.1 µM.

As for `O=C(NC1CCCCC1)NS(=O)(=O)c1ccc(CCNS(=O)(=O)c2ccc(Br)cc2)cc1`, the IC50 in test [1] (read-out: IC50) came out at 2.39 µM.

As to `CC(=O)Nc1ccc(S(=O)(=O)NCCc2ccc(S(=O)(=O)NC(=O)NC3CCC(C)CC3)cc2)cc1C` (configuration not stated), in test [1] (read-out: IC50), the IC50 was found to be 2.4 µM.

Turning to `COc1ccc(NC(=S)NS(=O)(=O)c2ccc(CCNS(=O)(=O)c3ccc(C)cc3)cc2)cc1`, in test [1], the half-maximal inhibitory concentration (IC50) entry is reported as “Not Active”.

With `Cc1ccc(S(=O)(=O)NCCc2ccc(S(=O)(=O)NC(=S)Nc3ccc(Cl)cc3)cc2)cc1`, in test [1], the IC50 entry is “Not Active”.

Turning to `CC(=O)Nc1ccc(S(=O)(=O)NCCc2ccc(S(=O)(=O)NC(=O)NC3CCC(C)CC3)cc2)cc1` (configuration not stated), the half-maximal inhibitory concentration (IC50) in test [1] (read-out: IC50) worked out at 7.14 µM.

In the case of `O=S(=O)(NCCc1ccc(S(=O)(=O)NC(=S)Nc2ccc(Cl)cc2)cc1)c1ccccc1`, the half-inhibitory concentration (IC50) in test [1] (read-out: IC50) was found to be 33.3 µM.

Consider `CCC1=C(C)CN(C(=O)NCCc2ccc(S(=O)(=O)NC(=O)N[C@H]3CC[C@H](C)CC3)cc2)C1=O` [GLIMEPIRIDE], for which, in test [2], the concentration giving a half-maximal response (EC50) came to 790 nM.

Usually IC50 stands for the concentration that gives 50% inhibition. Usually EC50 stands for the concentration needed to bring the measured effect to its halfway point.
